# From paper PMC9645390, “Amphiphilic stilbene derivatives attenuate the neurotoxicity of soluble Aβ42 oligomers by controlling their interactions with cell membranes” (Chemical Science, 2022)
# “Also recorded” adds a separate entry of the source.
# Legend:
# [1] = tested on: Aβ oligomers–SH-SY5Y cell membrane interactions; assay: Confocal imaging of Aβ oligomers binding to SH-SY5Y cell membranes; type: cell-based, human; conditions: 5 μM Aβ oligomers + 5 μM compound, 24 h; for Aβ oligomers bound to cell membranes (in words): CF594-HJ 3.4 staining
# Text: Encouraged by the ability of the developed amphiphilic compounds to attenuate the neurotoxicity of Cu–Aβ species, we sought out to study the possible molecular mechanisms for this beneficial effect. The Aβ oligomers were reported to interact with cell membranes in various ways, such as binding to receptors on cell membranes,[49,50] inserting into membranes,[51] or even showing cellular uptake via endocytosis.[52] The abnormal interactions between Aβ oligomers and neuron cells, which could disrupt the neuronal ion homeostasis and neuron cell membrane integrity, might be why Aβ oligomers are highly neurotoxic.[53–55] Moreover, molecules that can disrupt interactions between oligomers and cell membranes are promising candidates for drug development.[56,57] Thus, we proceeded to probe the interactions of the Aβ42 oligomers with SH-SY5Y cellular membranes, in the absence and presence of the compounds, via confocal microscopy. […] Moreover, a lower concentration of Aβ42 (5 μM) or Aβ42–Cu (5 μM) were chosen to avoid significant cell death (Fig. S9b ^†). Before investigating the neuroprotective effect of our compounds, we have also confirmed that Aβ aggregates interact tightly with the cell membranes, as shown via co-staining with a membrane specific dye (Fig. S10 ^†). […]
# Fig. 10 (a) SH-SY5Y cells were treated with 5 μM Aβ oligomers in the presence or absence of 5 μM ZY-15-MT or 5 μM ZY-15-OMe for 24 h before imaging. Red and blue fluorescence indicate the Aβ oligomers and nuclei, respectively. […] (b) Three independent experiments were subjected for the statistical analysis and analyzed by one-way ANOVA (*P < 0.05, ***P < 0.001).
# RCSB database and optimized by minimal minimization with the OPLS3 force field using the Protein Preparation Wizard program. […] The calculated poses were ranked by both the docking score and Glide e-model energy, and the structures with the best docking scores and Glide e-model energies were rendered in […]
# [2] = tested on: mouse neuroblastoma N2a cells; assay: Alamar Blue cytotoxicity assay in N2a cells; type: cell-based; conditions: 2 to 20 μM
# [3] = target: T1, human serum albumin (HSA) (Homo sapiens, UniProt P02768); assay: Fluorescence turn-on with human serum albumin (selectivity); type: binding; conditions: compound 5 µM, HSA 1 mg/mL, Aβ42 fibrils 25 µM for comparison
# T1 construct: purchased
# T1 sequence (P02768 25-609): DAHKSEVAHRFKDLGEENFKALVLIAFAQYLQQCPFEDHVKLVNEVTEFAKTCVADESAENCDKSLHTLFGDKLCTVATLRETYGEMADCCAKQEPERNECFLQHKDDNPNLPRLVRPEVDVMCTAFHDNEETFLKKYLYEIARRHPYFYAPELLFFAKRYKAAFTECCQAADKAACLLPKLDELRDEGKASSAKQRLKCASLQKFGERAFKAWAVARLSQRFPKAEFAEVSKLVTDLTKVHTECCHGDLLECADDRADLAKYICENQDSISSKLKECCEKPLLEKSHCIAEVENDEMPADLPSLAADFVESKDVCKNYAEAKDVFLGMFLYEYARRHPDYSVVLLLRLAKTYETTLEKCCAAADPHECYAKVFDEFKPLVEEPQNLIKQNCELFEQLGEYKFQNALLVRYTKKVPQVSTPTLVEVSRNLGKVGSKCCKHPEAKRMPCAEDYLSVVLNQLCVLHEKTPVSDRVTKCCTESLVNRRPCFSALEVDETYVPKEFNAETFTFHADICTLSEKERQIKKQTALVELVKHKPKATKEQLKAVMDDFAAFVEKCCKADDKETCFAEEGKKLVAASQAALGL
# Procedure: To investigate whether these amphiphilic compounds can interact with different Aβ species, we recorded the fluorescence intensity changes in the absence and presence of Aβ42 fibrils and oligomers, respectively, which were prepared as previously reported.[28] […] The enhanced fluorescence intensity and blue shift are possibly due to the restriction in a rotation of the aromatic rings and the changes of hydrophobicity at the Aβ binding sites. […] Comparing the ZY-17 series with the other series of compounds, we believe that the thiophene ring in the stilbene-like binding scaffold is essential for the selectively toward Aβ species, while the more hydrophobic tri-benzene rings might lead to unspecific binding to other proteins; such a design principle will be key for the development of second-generation compounds with increased Aβ-binding selectivity.
# Figure S4. Fluorescence turn-on effects of amphiphilic compounds with HAS; [compound] = 5 µM, [Aβ42 fibrils] = […]
Compound,decrease of the numbers of Aβ oligomers binding to the cell membranes [1],Aβ oligomers bound to cell membranes (in words) [1],cytotoxicity (in words) [2],fluorescence turn-on in the presence of HSA (in words) [3]
CN1CCN(C)CCN(Cc2cc(/C=C/c3ccc(-c4ccc(C=O)cc4)s3)ccc2O)CC1 [ZY-15-MT],about 50%,fewer numbers of Aβ oligomers bound to the cell membranes,,
COc1cc(/C=C/c2ccc(-c3ccc(C=O)cc3)s2)cc(CN2CCN(C)CCN(C)CC2)c1O [ZY-15-OMe],,fewer numbers of Aβ oligomers bound to the cell membranes,,
COc1cc(OC)cc(-c2ccc(/C=C/c3cc(CN4CCN(C)CCN(C)CC4)c(O)c(CN4CCN(C)CCN(C)CC4)c3)cc2)c1 [ZY-17-DT],,,higher cytotoxicity than others,even higher fluorescence intensity increase in the presence of HSA than for Aβ42 fibrils
COc1cc(OC)cc(-c2ccc(/C=C/c3cc(CN4CCN(C)CCN(C)CC4)c(O)c(OC)c3)cc2)c1 [ZY-17-OMe],,,higher cytotoxicity than others; also recorded: the highest toxicity,even higher fluorescence intensity increase in the presence of HSA than for Aβ42 fibrils
